# Measurements reported in patent US8642256B2, “Kinase and ubiquination assays” (Life Technologies Corporation, priority 2005, dated 2014).
# Where “and” joins values, the source holds several entries; their conditions need not be identical. Equal entries are not always repeated.
# Experiments:
# [1] = test system: RAW 264.7 cells; assay: Assay of kinase from cell lysate (GFP-cJun phosphorylation, TR-FRET); assay type: cell-based, mouse; conditions: duplicates
# Method: RAW 264.7 cells (mouse macrophage cell line) were serum starved overnight and stimulated (or not) with 10 ug/ml of Anisomycin for 15 minutes prior to lysates being prepared. Lysates were prepared following a standard protocol, e.g., as described in the Kinase Activity Assay Kit protocol, Rev. A1 Dec. 9, 2005, Catalog#KNZ0031, BioSource (California). The protocol is outlined below.
# When using the Omnia™ Lysate Assay to determine MAPKAP-K2 activity in cell lysates, the following procedure for sample preparation may be used. This protocol has been successfully applied to several cell lines of human and mouse origin. • 1. Thaw Omnia Cell Extraction Buffer (BioSource, California) on ice. • 2. Set up and stimulate cells as desired. • 3. Collect cells in cold PBS by centrifugation (for non-adherent cells) or scraping from culture plates (for adherent cells). • 4. Centrifuge the cells at 1,500 rpm for 5 minutes at 4° C. • 5. Aspirate the PBS. • 6. Resuspend the cell pellet in Omnia Cell Extraction Buffer and transfer the lysate to a 1.5 mL microcentrifuge tube. The volume of Omnia Cell Extraction Buffer depends on the cell number and expression level of MAPKAP-K2. The optimal protein concentration of lysate should be in the range of 5 to 10 mg/mL. Add an appropriate amount of protease and phosphatase inhibitor (typically provided as a 100× stock solution) before using. Under these conditions, using 0.005 mL (25-50 μg) of the clarified cell extract will be sufficient for measurement of MAPKAP-K2 activity. • 7. Lyse the cells at 4° C. for 30 minutes on a rotator. Whole cell extract can then be briefly sonicated or put through a syringe and needle if desired. • 8. Centrifuge at 13,000 rpm for 20-30 minutes at 4° C. • 9. Transfer the clarified cell extracts to clean microcentrifuge tubes. • 10. The clarified cell extract should be stored at −80° C. until ready for analysis. Avoid repeated freeze-thaw cycles. In preparation for performing the assay, allow the samples to thaw on ice. Mix well prior to analysis.
# Lysate was serially diluted in buffer and 5 uL aliquots were assayed against 400 nM GFP-cJun in assay buffer containing 100 uM ATP. Assays were stopped by addition of EDTA and antibody, with a final anti-phospho cJun antibody concentration of 2 nM. The plate was read after 1 hour incubation and the data collected. Samples were performed in duplicates.
# [2] = target: T1, Epidermal Growth Factor Receptor (EGFR) Tyrosine Kinase (Homo sapiens, UniProt P00533); assay: EGFR kinase multiplex FP/TR-RET assay (LOPAC screen and follow-up); assay type: biochemical; conditions: re-assayed, two-fold dilutions
# T1 construct: purchased Invitrogen P2628
# [3] = Precipitation of compounds seen in the EGFR kinase assay; assay type: physicochemical; conditions: EGFR kinase assay conditions
# [4] = target: T2, UCH-L3 (Homo sapiens, UniProt P15374); assay: Deubiquitination TR-FRET assay with GFP-Ub-Tb, inhibitor titration; assay type: biochemical; conditions: 0.1 nM UCH-L3 and 10 nM GFP-Ub-Tb
# T2 construct: purchased Boston Biochem E-325
# T2 sequence (P15374 1-230): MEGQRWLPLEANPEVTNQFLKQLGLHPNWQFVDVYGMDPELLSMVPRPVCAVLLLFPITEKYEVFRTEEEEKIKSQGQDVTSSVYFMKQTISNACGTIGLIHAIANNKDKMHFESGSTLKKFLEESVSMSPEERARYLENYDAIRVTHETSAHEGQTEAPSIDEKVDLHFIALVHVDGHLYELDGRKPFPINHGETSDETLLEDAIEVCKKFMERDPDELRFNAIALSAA
# T1 sequence (P00533 25-1210): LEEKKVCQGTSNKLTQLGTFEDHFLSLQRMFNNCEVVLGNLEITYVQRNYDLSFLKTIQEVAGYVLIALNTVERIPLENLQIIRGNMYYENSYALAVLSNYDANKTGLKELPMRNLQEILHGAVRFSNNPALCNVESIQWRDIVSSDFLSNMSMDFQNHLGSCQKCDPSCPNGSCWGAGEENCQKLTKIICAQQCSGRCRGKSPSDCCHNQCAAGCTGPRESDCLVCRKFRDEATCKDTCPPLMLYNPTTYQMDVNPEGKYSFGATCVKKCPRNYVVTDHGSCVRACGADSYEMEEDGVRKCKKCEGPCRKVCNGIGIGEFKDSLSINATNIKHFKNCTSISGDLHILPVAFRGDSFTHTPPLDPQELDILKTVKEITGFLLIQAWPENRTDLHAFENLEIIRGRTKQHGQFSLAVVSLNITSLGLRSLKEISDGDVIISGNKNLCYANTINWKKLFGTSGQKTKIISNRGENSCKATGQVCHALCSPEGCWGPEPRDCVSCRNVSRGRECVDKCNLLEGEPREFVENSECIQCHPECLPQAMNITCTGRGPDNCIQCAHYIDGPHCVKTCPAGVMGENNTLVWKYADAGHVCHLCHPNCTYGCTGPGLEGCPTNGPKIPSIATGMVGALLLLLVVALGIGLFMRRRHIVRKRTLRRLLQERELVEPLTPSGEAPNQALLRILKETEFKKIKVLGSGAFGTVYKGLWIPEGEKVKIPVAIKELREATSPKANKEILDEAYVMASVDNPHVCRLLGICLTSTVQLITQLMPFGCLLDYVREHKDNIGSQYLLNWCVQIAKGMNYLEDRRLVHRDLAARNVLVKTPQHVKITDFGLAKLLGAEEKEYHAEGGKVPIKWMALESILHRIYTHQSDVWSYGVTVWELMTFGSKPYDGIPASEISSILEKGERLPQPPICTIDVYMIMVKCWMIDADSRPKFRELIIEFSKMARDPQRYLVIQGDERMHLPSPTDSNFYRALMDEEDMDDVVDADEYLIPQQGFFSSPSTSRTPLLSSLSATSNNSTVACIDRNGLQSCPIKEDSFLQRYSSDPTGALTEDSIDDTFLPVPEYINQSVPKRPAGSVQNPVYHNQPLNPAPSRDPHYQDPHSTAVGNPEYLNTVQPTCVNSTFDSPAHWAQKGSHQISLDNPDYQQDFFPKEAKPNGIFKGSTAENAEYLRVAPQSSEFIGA
molecule,measurement,setting,value
COc1ccc(C[C@H]2NC[C@H](O)[C@H]2OC(C)=O)cc1 [Anisomycin],"TR-FRET value of lysate, +Anisomycin","[1]; 10 ug/ml Anisomycin 15 minutes, 0.003051758 % Cell Lysate in 5 uL Addition",0.1308 and 0.1312
same,"TR-FRET value of lysate, +Anisomycin","[1]; 10 ug/ml Anisomycin 15 minutes, 0.006103516 % Cell Lysate in 5 uL Addition",0.1395 and 0.1339
same,"TR-FRET value of lysate, +Anisomycin","[1]; 10 ug/ml Anisomycin 15 minutes, 0.01220703 % Cell Lysate in 5 uL Addition",0.1419 and 0.1424
same,"TR-FRET value of lysate, +Anisomycin","[1]; 10 ug/ml Anisomycin 15 minutes, 0.02441406 % Cell Lysate in 5 uL Addition",0.1479 and 0.1534
same,"TR-FRET value of lysate, +Anisomycin","[1]; 10 ug/ml Anisomycin 15 minutes, 0.04882813 % Cell Lysate in 5 uL Addition",0.1572 and 0.1894
same,"TR-FRET value of lysate, +Anisomycin","[1]; 10 ug/ml Anisomycin 15 minutes, 0.09765625 % Cell Lysate in 5 uL Addition",0.2161 and 0.2286
same,"TR-FRET value of lysate, +Anisomycin","[1]; 10 ug/ml Anisomycin 15 minutes, 0.1953125 % Cell Lysate in 5 uL Addition",0.2474 and 0.3145
same,"TR-FRET value of lysate, +Anisomycin","[1]; 10 ug/ml Anisomycin 15 minutes, 0.390625 % Cell Lysate in 5 uL Addition",0.2813 and 0.3421
same,"TR-FRET value of lysate, +Anisomycin","[1]; 10 ug/ml Anisomycin 15 minutes, 0.78125 % Cell Lysate in 5 uL Addition",0.3722 and 0.4739
same,"TR-FRET value of lysate, +Anisomycin","[1]; 10 ug/ml Anisomycin 15 minutes, 1.5625 % Cell Lysate in 5 uL Addition",0.4554 and 0.5687
same,"TR-FRET value of lysate, +Anisomycin","[1]; 10 ug/ml Anisomycin 15 minutes, 3.125 % Cell Lysate in 5 uL Addition",0.5703 and 0.707
same,"TR-FRET value of lysate, +Anisomycin","[1]; 10 ug/ml Anisomycin 15 minutes, 6.25 % Cell Lysate in 5 uL Addition",0.5917 and 0.7878
same,"TR-FRET value of lysate, +Anisomycin","[1]; 10 ug/ml Anisomycin 15 minutes, 12.5 % Cell Lysate in 5 uL Addition",0.7483 and 0.8384
same,"TR-FRET value of lysate, +Anisomycin","[1]; 10 ug/ml Anisomycin 15 minutes, 25 % Cell Lysate in 5 uL Addition",0.8474 and 0.8571
same,"TR-FRET value of lysate, +Anisomycin","[1]; 10 ug/ml Anisomycin 15 minutes, 50 % Cell Lysate in 5 uL Addition",0.9027 and 0.9226
same,"TR-FRET value of lysate, +Anisomycin","[1]; cells stimulated with 10 ug/ml Anisomycin 15 minutes, 100 % Cell Lysate in 5 uL Addition",0.9796 and 0.9768
NC(=O)c1cc(N2CC2)c([N+](=O)[O-])cc1[N+](=O)[O-] [CB-1954],inhibitor on re-assay,[2],neither was seen to be an inhibitor
CC(C)[C@@]1(NC(=O)[C@@H]2C=C3c4cccc5[nH]cc(c45)C[C@H]3N(C)C2)O[C@@]2(O)[C@@H]3CCCN3C(=O)[C@H](Cc3ccccc3)N2C1=O [Ergocristine],precipitation in the assay,[3],seen to precipitate
O=C1Nc2ccc(I)cc2/C1=C/c1cc(Br)c(O)c(Br)c1 [GW5074],precipitation in the assay,[3],seen to precipitate
Oc1ccccc1O [Pyrocatechol],inhibitor on re-assay,[2],neither was seen to be an inhibitor
ubiquitin aldehyde,IC50,[4],0.2 nM
